The source of these data is a melting point compilation (Tetko et al.).

As usually defined, the melting point is the temperature of the solid-liquid transition. On to `CC1(C)OC(=O)C(=Cc2ccc(Br)o2)C(=O)O1`, for which the melting point was 116 °C.

On to `O=C1OC(=O)c2c1cccc2[N+](=O)[O-]`, for which the melting point lay in the range of 160 to 165 °C.

The compound `CCN(CC)C(=O)Nc1ccc(OCC(O)CNC(C)(C)C)c(C(C)=O)c1` (configuration not stated) gave a melting point of 110 °C.

Compound `O=Cc1cc(F)c(O)cc1F` returned a melting point of 147 °C.

`NC(=NO)c1cc(C(F)(F)F)cc(C(F)(F)F)c1`: the melting point was 131 to 133 °C.

`CC(C)[C@H]1NC(=O)CNC1=O` yielded a melting point of 250 to 260 °C.

The compound `Nc1ccc2nccnc2c1` yielded a melting point of 159 °C.

With `CC(C)C(=O)C(=O)O`, the melting point was 31.5 °C.

Consider `NC=NO`, for which the melting point was 114 °C.

`S=C(SSC(=S)N1CCCCC1)N1CCCCC1` showed a melting point of 138 °C.

In turn, `Cc1csc(C(=O)NN)c1Cl` yielded a melting point of 130 to 132 °C.

In turn, `CCOC(=O)/C(=N\Nc1ccc(C)cc1C)C(=O)C(F)(F)F` displayed a melting point of 139 °C.

`O=C(Cc1ccccc1)OCCc1ccccc1` showed a melting point of 26.5 °C.

In the case of `CCc1ccc(CCl)cc1`, the melting point is -21 °C.

`CSC(S)=Nc1ccccc1C` registered a melting point of 151 to 153 °C.

Regarding `FC(F)(F)C(F)(F)Cl`, the melting point is -99.4 °C.

Compound `O=Cc1cccc2cccc([N+](=O)[O-])c12` returned a melting point of 125 °C.

As for `CC12CCC3C(CCC4CC=CCC43C)C1CCC2=O` (configuration not stated), the melting point was 104 °C.

In the case of `Cc1c[nH]c(-c2ccccc2)n1`, the melting point amounted to 175 °C.

`Cn1cc(Br)c(C(=O)O)n1`: the melting point lay within 211 to 213 °C.

The compound `Cc1ccnc2c1ccc1cccnc12` displayed a melting point of 145 °C.

`O=C1NC(=NN=Cc2ccccc2)SC1=Cc1ccccc1` yielded a melting point of 295 °C.

Consider `CCC(C)(c1ccc(O)cc1)c1ccc(O)cc1`, for which the melting point is 120 °C.

Regarding `CCOC(=O)c1sc(-c2cccc(N)c2)nc1C`, the melting point is 84 °C.

Consider `O=C1NCCSC1c1ccccc1` (configuration not stated), for which the melting point lay in the range of 158 to 162 °C.

In the case of `Cc1nc2ccc([N+](=O)[O-])cc2o1`, the melting point is 155 °C.

In the case of `NSCc1cc2ccccc2oc1=O`, the melting point amounted to 255 °C.

As for `CCOC(=O)C1=NN(c2ccc([N+](=O)[O-])cc2)C2(C)CC3(c4ccccc4)N(c4ccc([N+](=O)[O-])cc4)N=C(C(=O)OCC)N3c3ccccc3N12` (configuration not stated), the melting point lay within 237 to 239 °C.

Turning to `O=C(O)CC(c1ccccc1)c1ccccc1`, the melting point lay in the range of 150 to 155 °C.

Take `CC(C)S(=O)(=O)c1csc(C(=O)O)c1N`: the melting point is 158 °C.

As for `Nc1cccc2c1C(=O)c1cccc(Cl)c1C2=O`, the melting point was determined as 207 °C.

`COC(=O)c1cncn1C` yielded a melting point of 57 °C.

For `COC(=O)c1cc2c(=O)oc3ccccc3c2nc1N`, the melting point fell in the range of 263 to 265 °C.

For the compound `Cn1c(/C(C#N)=N/Nc2ccc([N+](=O)[O-])cc2)nc2ccccc21`, the melting point was determined as 238 °C.

Consider `O=CC(C=O)c1cnccn1`, for which the melting point fell in the range of 202 to 207 °C.

As to `COc1ccc(-c2nnc3n2NC(c2ccc(OC)cc2)S3)cc1` (configuration not stated), the melting point amounted to 152 °C.

As to `CC(C)CC(N)P(=O)(O)O` (configuration not stated), the melting point lay within 274 to 280 °C.

`COc1ccc([N+](=O)[O-])c(Cl)n1`: the melting point was 78 to 80 °C.

For the compound `CN1C(=O)N2CCc3ccccc3C2(c2ccc(Cl)cc2)C1=O` (configuration not stated), the melting point fell in the range of 121 to 122 °C.

Regarding `Nc1ccc([N+](=O)[O-])cc1C(F)(F)F`, the melting point amounted to 92 °C.

In turn, `CCOC(=O)c1c[nH]nc1C(F)(F)F` displayed a melting point of 145 to 148 °C.

The compound `COc1cc(I)c(OC)cc1C` showed a melting point of 84 to 86 °C.

Consider `O=S(=O)(Cl)c1cc(Br)ccc1Br`, for which the melting point was determined as 71 °C.

For the compound `ON=Cc1ccc[nH]1`, the melting point was 165 °C.

`c1ccc(-c2ccc3ccccc3c2)cc1` came in with a melting point of 104 °C.

`O=C1/C(=N\Nc2ccccc2)C(c2ccc([N+](=O)[O-])cc2)=NN1c1ccccc1` registered a melting point of 239 to 240 °C.

Consider `COc1ccc(C(Cl)=C(c2ccc(OC)cc2)c2ccc(OC)cc2)cc1`, for which the melting point is 115 °C.

As to `COC(=O)c1ccc(C(C)=O)cc1`, the melting point fell in the range of 93 to 95 °C.

As for `ClC(Cl)=CBr`, the melting point was -88.5 °C.

As to `NCCP(=O)(O)O`, the melting point stood at 296 °C.

In turn, `SC1=NN=C(S)NN1` displayed a melting point of 191 to 193 °C.

In turn, `CN1CCC(=O)NC1=O` returned a melting point of 171 °C.

`O=C(c1ccc2ccccc2c1)C(Br)c1ccccc1` (configuration not stated) gave a melting point of 101 to 108 °C.

`O=C(O)C=Cc1c(F)c(F)c(F)c(F)c1F` showed a melting point of 153 °C.

In turn, `CCCCCCCCOC(=O)CCCCC(=O)OCCCCCCCC` returned a melting point of -70 °C.

In turn, `O=C1C=Cc2ccccc2C1=O` registered a melting point of 136 to 141 °C.

As to `COC(=O)C(CCSC)NC(=O)c1ccc(C(F)(F)F)cc1` (configuration not stated), the melting point lay within 94 to 96 °C.

Take `COc1cc(C(=O)O)c(OC)c([N+](=O)[O-])c1`: the melting point was in the range of 180 to 184 °C.

`[O-][P+](c1ccccc1)(c1ccccc1)C1C=C(c2ccccc2)OC2=C1CCCC2` (configuration not stated) returned a melting point of 177 °C.

Turning to `CC(=O)NCCCCC(N)C(=O)O` (configuration not stated), the melting point is 250 °C.

On to `CCCCCCC(=O)CCC`, for which the melting point was -9 °C.

Turning to `NC(Cc1ccc(F)c(F)c1)C(=O)O` (racemic), the melting point was 237 to 240 °C.

The compound `COC(=O)c1ccc2ncccc2c1` came in with a melting point of 88 to 89 °C.

Compound `Cc1ccc(F)c([N+](=O)[O-])c1` came in with a melting point of 28 to 30 °C.

In the case of `Cc1cc(=O)n(N)c(=S)[nH]1`, the melting point was 262 °C.

In the case of `Brc1c(Br)c(Br)c2c(c1Br)Oc1c(Br)c(Br)c(Br)c(Br)c1O2`, the melting point was 376 °C.

The compound `COc1ccc(Oc2ccc(C(N)=NO)cc2[N+](=O)[O-])cc1` came in with a melting point of 174 to 177 °C.

Take `C[C@]12CC[C@@H](O)[C@H](O)[C@@H]1CC[C@@H]1[C@@H]2CC[C@]2(C)C(=O)CC[C@@H]12`: the melting point was determined as 233 °C.

Take `BrCc1c(CBr)c(CBr)c(CBr)c(CBr)c1CBr`: the melting point is 292 °C.

For the compound `O=[N+]([O-])c1cc(C(F)(F)F)c(Cl)cc1Cl`, the melting point is 55 °C.

In turn, `O=Cc1ccsc1Sc1ccc(Cl)cc1` gave a melting point of 57 to 60 °C.

In the case of `Cc1csc(N)c1C(N)=O`, the melting point stood at 174 °C.

Turning to `Cc1oc(C)c(S(=O)(=O)NCc2cccs2)c1C(=O)O`, the melting point lay within 167 to 169 °C.

`CCCC(C)(C)C(C)(C)C`: the melting point is -54 °C.

Consider `COc1cc(N)c(C(C)=O)cc1OC`, for which the melting point was 106 °C.

Compound `O=C(CC1(O)Cc2ccccc21)c1ccccc1` (configuration not stated) yielded a melting point of 83 to 83.5 °C.

As for `C=COCCCCCCCCCCCCCCCCCC`, the melting point turned out to be 30 °C.

`COc1ccccc1-c1ccc(C=C2C(=O)OC(C)(C)OC2=O)o1` came in with a melting point of 147 °C.

Compound `COc1cc2c(cc1OC)C(=O)NCC2` gave a melting point of 175 °C.

As to `O=C(CCl)NNC(=O)c1ccccc1`, the melting point lay in the range of 163 to 166 °C.

`COc1cc2oc(=O)cc(CBr)c2cc1OC`: the melting point was determined as 202 °C.

As to `COc1c(Br)cc(Br)cc1Br`, the melting point is 88 °C.

Consider `Cc1ccc(C#N)c([N+](=O)[O-])c1`, for which the melting point is 97 °C.

As for `CCOC(=O)/C(=N\Nc1ccccc1)C(=O)C(F)(F)F`, the melting point was in the range of 80 to 82 °C.

In turn, `C[Si](C)(C)N=C=N[Si](C)(C)C` came in with a melting point of -23 °C.

Take `Nc1ncc2nc[nH]c2n1`: the melting point fell in the range of 280 to 284 °C.

With `Cc1cc(Cl)c([N+](=O)[O-])cc1[N+](=O)[O-]`, the melting point came to 90 °C.

As for `CCc1ccccc1-c1ccccc1`, the melting point is -6 °C.

Take `O=C(O)CSc1nnc(S)s1`: the melting point fell in the range of 168 to 169 °C.

Consider `O=C(O)c1sccc1-n1cccc1`, for which the melting point is 166 °C.

Turning to `OCc1ccccc1COc1ccccc1`, the melting point lay within 50 to 51 °C.

Turning to `N#Cc1c(O)cccc1F`, the melting point turned out to be 156 °C.

`CC(C)(C)SSC(C)(C)C` showed a melting point of -5 °C.

In the case of `O=S(=O)(O)c1ccc(O)c2ncccc12`, the melting point turned out to be 322 °C.

Compound `NC(=O)/C(=C\c1ccccc1O)c1nc2ccccc2s1` returned a melting point of 210 °C.

`COC(=O)c1cc(N)cc(N)c1`: the melting point worked out at 133 °C.

As to `CC(C)(Oc1ccc(C2CC2(Cl)Cl)cc1)C(=O)O` (configuration not stated), the melting point was 115 °C.

`Cc1ccc(S(=O)(=O)NCCN(CCN(CCNS(=O)(=O)c2ccc(C)cc2)S(=O)(=O)c2ccc(C)cc2)S(=O)(=O)c2ccc(C)cc2)cc1` showed a melting point of 112 °C.

Regarding `O=C(O)CCCn1c(C(F)(F)F)nc2ccccc21`, the melting point was 143 to 145 °C.

In turn, `O=C(O)c1cc(Cl)sc1Cl` displayed a melting point of 148 °C.

In turn, `Cn1cncc1C=O` yielded a melting point of 55 °C.

`O=C(NCCCCc1ccccc1)c1cc([N+](=O)[O-])cc([N+](=O)[O-])c1` registered a melting point of 165 to 167 °C.

In turn, `COc1cc2c(cc1OC)C1CC(=O)C(CC(C)C)CN1CC2` (configuration not stated) came in with a melting point of 128 °C.

The compound `COC(=O)c1ccc(S(=O)(=O)Cl)n1C` registered a melting point of 79 to 81 °C.

On to `CN=C(NC)c1cc(C(C)(C)C)c(O)c(C(C)(C)C)c1`, for which the melting point turned out to be 206 °C.

As for `CCOC(=O)c1c2n(n(-c3ccc([N+](=O)[O-])cc3)c1=N)C(=O)CS2`, the melting point was 145 to 148 °C.

Take `CS(=O)(=O)c1nc(Br)c(C#N)c(-c2ccc(Cl)cc2)c1Cl`: the melting point was 158 °C.

The compound `CCOc1ccc(C(=O)C=CC(=O)O)cc1` had a melting point of 140 to 144 °C.

The compound `CCCCCCCCCCCCCCCCCC(N)=O` gave a melting point of 109 °C.

`COC(=O)c1ccc(OC)c(OC)c1Cl` came in with a melting point of 46 to 48 °C.

Take `Nc1c(I)cc(I)c(C(=O)O)c1I`: the melting point was in the range of 196 to 199 °C.

In turn, `CCOc1cc2c(cc1OCC)C(CC(=O)O)NCC2` (configuration not stated) gave a melting point of 259 to 260 °C.
